Laboratory results as given in patent publication US20260132132A1, “3A,4,5,6-TETRAHYDRO-1 H-PYRAZOLO[3,4-C]PYRIDIN-7(7AH)-ONE DERIVATIVES AS FACTOR XIIA INHIBITORS” (KALVISTA PHARMACEUTICALS LIMITED, priority 2022, published 2026).

Target: T1, Human Factor XIIa (hFXIIa) (Homo sapiens, UniProt P00748)
T1 construct: purchased Enzyme Research Laboratories
T1 sequence (P00748 373-615 limits assumed): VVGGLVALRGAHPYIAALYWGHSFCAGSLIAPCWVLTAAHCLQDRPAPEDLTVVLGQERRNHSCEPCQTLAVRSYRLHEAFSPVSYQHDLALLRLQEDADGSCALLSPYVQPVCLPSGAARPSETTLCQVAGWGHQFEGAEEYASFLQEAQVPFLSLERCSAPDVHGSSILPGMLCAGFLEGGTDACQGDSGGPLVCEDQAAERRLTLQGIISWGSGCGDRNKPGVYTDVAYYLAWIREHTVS
T1 sequence (P00748 20-372 partner limits assumed): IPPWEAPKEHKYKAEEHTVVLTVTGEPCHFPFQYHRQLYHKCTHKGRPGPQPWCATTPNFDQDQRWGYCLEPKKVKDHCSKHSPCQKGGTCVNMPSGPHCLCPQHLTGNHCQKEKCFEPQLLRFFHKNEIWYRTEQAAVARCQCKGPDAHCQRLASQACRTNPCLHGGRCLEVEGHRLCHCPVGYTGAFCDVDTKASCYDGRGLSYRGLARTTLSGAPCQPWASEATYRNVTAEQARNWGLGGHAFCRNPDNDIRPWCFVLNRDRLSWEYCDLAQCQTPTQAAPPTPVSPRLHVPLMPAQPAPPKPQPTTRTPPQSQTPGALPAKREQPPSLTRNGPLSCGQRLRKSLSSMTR
Experiment: Determination of Human Factor XIIa (hFXIIa) inhibition, fluorogenic substrate IC50 assay
Format: biochemical
Details: fluorogenic substrate H-DPro-Phe-Arg-AFC at Km, 25° C., read-out: Human FXIIa IC50
Procedure: Determination of Human Factor XIIa (hFXIIa) inhibition
The Km for the cleavage of the substrate by hFXIIa was determined by standard transformation of the Michaelis-Menten equation, with subsequent inhibition assays performed at substrate Km concentration.

| SMILES | IC50 [µM] |
| --- | --- |
| CCOC(=O)c1nn(-c2cccc(Cl)c2)c2c1CCN(c1cccc(CN(C)C(=O)CO)c1)C2=O [Example 1322, ethyl 1-(3-chlorophenyl)-6-(3-((2-hydroxy-N-methylacetamido)methyl)phenyl)-7-oxo-4,5,6,7-tetrahydro-1H-pyrazolo[3,4-c]pyridine-3-carboxylate] | 10 to 40 |
| CN1CCc2ccc(N3CCc4c(C(=O)NCC5CC5)nn(-c5cccc(Cl)c5)c4C3=O)nc2C1 [Example 1034, 1-(3-Chlorophenyl)-N-(cyclopropylmethyl)-6-(7-methyl-5,6,7,8-tetrahydro-1,7-naphthyridin-2-yl)-7-oxo-4,5,6,7-tetrahydro-1H-pyrazolo[3,4-c]pyridine-3-carboxamide] | 0.3 to 1 |
| CCN1CCc2cnc(N3CCc4c(C(=O)NCC5CC5)nn(-c5cccc(Cl)c5)c4C3=O)nc2C1 [Example 1056, 1-(3-Chlorophenyl)-N-(cyclopropylmethyl)-6-(7-ethyl-5,6,7,8-tetrahydropyrido[3,4-d]pyrimidin-2-yl)-7] | 0.3 to 1 |
| CC(C)(O)CN1CCc2ccc(N3CCc4c(C(=O)NCC5CC5)nn(-c5cccc(Cl)c5)c4C3=O)cc2C1 [Example 1096, 1-(3-chlorophenyl)-N-(cyclopropylmethyl)-6-(2-(2-hydroxy-2-methylpropyl)-1,2,3,4-tetrahydroisoquinolin-7-yl)-7-oxo-4,5,6,7-tetrahydro-1H-pyrazolo[3,4-c]pyridine-3-carboxamide] | 0.3 to 1 |
| O=C(NCC1CC1)c1nn(-c2cccc(Cl)c2)c2c1CCN(c1cccc(CN3CCC(F)C3)c1)C2=O (stereo not drawn) [Example 1243, 1-(3-chlorophenyl)-N-(cyclopropylmethyl)-6-(3-((3-fluoropyrrolidin-1-yl)methyl)phenyl)-7-oxo-4,5,6,7-tetrahydro-1H-pyrazolo[3,4-c]pyridine-3-carboxamide] | 1 to 3 |
| O=C(NCC1CC1)c1nn(-c2cccc(Cl)c2)c2c1CCN(c1ccc3c(c1)CN(CC1CCOC1)CC3)C2=O (stereo not drawn) [Example 1116, 1-(3-chlorophenyl)-N-(cyclopropylmethyl)-7-oxo-6-(2-((tetrahydrofuran-3-yl)methyl)-1,2,3,4-tetrahydroisoquinolin-7-yl)-4,5,6,7-tetrahydro-1H-pyrazolo[3,4-c]pyridine-3-carboxamide] | 0.3 to 1 |
| CCN1CCc2cc(C)c(N3CCc4c(C(=O)NCC5CC5)nn(-c5cccc(Cl)c5)c4C3=O)cc2C1 [Example 1054, 1-(3-Chlorophenyl)-N-(cyclopropylmethyl)-6-(2-ethyl-6-methyl-1,2,3,4-tetrahydroisoquinolin-7-yl)-7-oxo-4,5,6,7-tetrahydro-1H-pyrazolo[3,4-c]pyridine-3-carboxamide] | 0.1 to 0.3 |
| CNC(=O)NCCN1CCc2ccc(N3CCc4c(C(=O)NCC5CC5)nn(-c5cccc(Cl)c5)c4C3=O)cc2C1 [Example 1084, 1-(3-chlorophenyl)-N-(cyclopropylmethyl)-6-(2-(2-(3-methylureido)ethyl)-1,2,3,4-tetrahydroisoquinolin-7-yl)-7-oxo-4,5,6,7-tetrahydro-1H-pyrazolo[3,4-c]pyridine-3-carboxamide] | 0.1 to 0.3 |

Results, then the compound that gave them:

| IC50 [µM] | SMILES |
| --- | --- |
| 0.3 to 1 | C[C@@H](O)CN1CCc2ccc(N3CCc4c(C(=O)NCC5CC5)nn(-c5cccc(Cl)c5)c4C3=O)cc2C1 [Example 1101, (R)-1-(3-chlorophenyl)-N-(cyclopropylmethyl)-6-(2-(2-hydroxypropyl)-1,2,3,4-tetrahydroisoquinolin-7-yl)-7-oxo-4,5,6,7-tetrahydro-1H-pyrazolo[3,4-c]pyridine-3-carboxamide] |
| 0.1 to 0.3 | Cc1cc(CNC(=O)c2nn(-c3cccc(Cl)c3)c3c2CCN(c2ccc4c(c2)C(=O)N(CC2CCCO2)CC4)C3=O)nn1C (stereo not drawn) [Example 1293, 1-(3-chlorophenyl)-N-((1,5-dimethyl-1H-pyrazol-3-yl)methyl)-7-oxo-6-(1-oxo-2-((tetrahydrofuran-2-yl)methyl)-1,2,3,4-tetrahydroisoquinolin-7-yl)-4,5,6,7-tetrahydro-1H-pyrazolo[3,4-c]pyridine-3-carboxamide] |
| 0.1 to 0.3 | CCC(C)N1CCc2ccc(N3CCc4c(C(=O)NCC5CC5)nn(-c5cccc(Cl)c5)c4C3=O)cc2C1 (stereo not drawn) [Example 1059, 6-(2-(sec-butyl)-1,2,3,4-tetrahydroisoquinolin-7-yl)-1-(3-chlorophenyl)-N-(cyclopropylmethyl)-7-oxo-4,5,6,7-tetrahydro-1H-pyrazolo[3,4-c]pyridine-3-carboxamide] |
| 10 to 40 | CCNC(=O)c1nn(-c2cccc(Cl)c2)c2c1CCN(c1cccc(N3C(=O)C[C@H]4C[C@H]43)c1)C2=O (single isomer, unassigned) [Example 1407, 1-(3-Chlorophenyl)-N-ethyl-7-oxo-6-(3-((1R*,5R*)-3-oxo-2-azabicyclo[3.1.0]hexan-2-yl)phenyl)-4,5,6,7-tetrahydro-1H-pyrazolo[3,4-c]pyridine-3-carboxamide] |
| 0.3 to 1 | O=C(NCC1CC1)c1nn(-c2cccc(Cl)c2)c2c1CCN(c1ccc3c(c1)C(=O)N(CC1CCCO1)CC3)C2=O (stereo not drawn) [Example 1292, 1-(3-chlorophenyl)-N-(cyclopropylmethyl)-7-oxo-6-(1-oxo-2-((tetrahydrofuran-2-yl)methyl)-1,2,3,4-tetrahydroisoquinolin-7-yl)-4,5,6,7-tetrahydro-1H-pyrazolo[3,4-c]pyridine-3-carboxamide] |
| 0.1 to 0.3 | CC(C)n1ccc(CNC(=O)c2nn(-c3cccc(Cl)c3)c3c2CCN(c2ccc4c(c2)C(=O)N(C)CC4)C3=O)n1 [Example 1296, 1-(3-chlorophenyl)-N-((1-isopropyl-1H-pyrazol-3-yl)methyl)-6-(2-methyl-1-oxo-1,2,3,4-tetrahydroisoquinolin-7-yl)-7-oxo-4,5,6,7-tetrahydro-1H-pyrazolo[3,4-c]pyridine-3-carboxamide] |
| 0.3 to 1 | CC(=O)NCCN1CCc2ccc(N3CCc4c(C(=O)NCC5CC5)nn(-c5cccc(Cl)c5)c4C3=O)cc2C1 [Example 1081, 6-(2-(2-acetamidoethyl)-1,2,3,4-tetrahydroisoquinolin-7-yl)-1-(3-chlorophenyl)-N-(cyclopropylmethyl)-7-oxo-4,5,6,7-tetrahydro-1H-pyrazolo[3,4-c]pyridine-3-carboxamide] |
| 1 to 3 | Cc1cc(CNC(=O)c2nn(-c3cccc(Cl)c3)c3c2CCN(c2ccc4c(c2)N(C)C(=O)CCC4)C3=O)nn1C [Example 1241, 1-(3-chlorophenyl)-N-((1,5-dimethyl-1H-pyrazol-3-yl)methyl)-6-(1-methyl-2-oxo-2,3,4,5-tetrahydro-1H-benzo[b]azepin-8-yl)-7-oxo-4,5,6,7-tetrahydro-1H-pyrazolo[3,4-c]pyridine-3-carboxamide] |
| 0.3 to 1 | CCOC(=O)c1nn(-c2cccc(Cl)c2)c2c1CCN(c1ccc3c(c1)C(=O)N(C)CC3)C2=O [Example 1284, ethyl 1-(3-chlorophenyl)-6-(2-methyl-1-oxo-1,2,3,4-tetrahydroisoquinolin-7-yl)-7-oxo-4,5,6,7-tetrahydro-1H-pyrazolo[3,4-c]pyridine-3-carboxylate] |
| 3 to 10 | CN1CCc2ccc(N3CCc4c(C(=O)NCC5CC5)nn(-c5cncc(Cl)c5)c4C3=O)cc2C1=O [Example 2021, 1-(5-chloropyridin-3-yl)-N-(cyclopropylmethyl)-6-(2-methyl-1-oxo-1,2,3,4-tetrahydroisoquinolin-7-yl)-7-oxo-4,5,6,7-tetrahydro-1H-pyrazolo[3,4-c]pyridine-3-carboxamide] |
